Each structure is given as a SMILES string.

We go through ten compounds from ChEMBL document CHEMBL1144956, “Chemical synthesis and cytotoxicity of dihydroxylated cyclopentenone analogues of neocarzinostatin chromophore” (Bioorg Med Chem Lett, 2003).

What all share (type): functional, cell-based
One experiment has as its system K562. The experiment in a line: In vitro cytotoxic activity against human leukemic cell line K562 after incubation for 1 hour. The following applies: K562, 1 h.
For the next experiment, the system named is CH1. The experiment in a line: In vitro cytotoxic activity against human tumor cell line CH1 after incubation for 96 hours. To be noted: CH1, 96 h.
Experiment [1] relates to A2780. The experiment in a line: In vitro cytotoxic activity against human tumor cell line A2780 after incubation for 96 hours. To be noted: A2780, 96 h.
For experiment [2], the system named is A2780. The experiment in a line: In vitro cytotoxic activity against human tumor cell line A2780CisR after incubation for 96 hours. To be noted: A2780, 96 h.
A further experiment concerns SK-OV-3. The experiment in a line: In vitro cytotoxic activity against human tumor cell line SKOV-3 after incubation for 96 hours. To be noted: SK-OV-3, 96 h.
The next experiment concerns HT-29. The experiment in a line: In vitro cytotoxic activity against human tumor cell line HT-29 after incubation for 96 hours. To be noted: HT-29, 96 h.

In the experiment on K562, `O=C(O[C@@H]1C=C[C@H](O)[C@H]1O)c1c(O)ccc2ccccc12` yielded an IC50 of over 100 µM.
In the case of `O=C(O[C@@H]1C=CC(=O)[C@H]1O)c1c(O)ccc2ccccc12`, the IC50 in the experiment on CH1 was 4 µM; in the experiment with A2780 [1] it was 2.7 µM; in the experiment with A2780 [2], 8.6 µM; in the experiment with SK-OV-3, 2.3 µM; with K562, 6 µM; with HT-29, 12 µM.
In the case of `COc1cc(C)c2ccc(O)c(C(=O)O[C@H]3[C@H](O)C=C[C@@H]3O)c2c1`, the IC50 in the experiment with K562 is over 100 µM.
On to `O=C(O[C@@H]1C(=O)C(Br)=C[C@H]1O)c1c(O)ccc2ccccc12`, for which the half-inhibitory concentration (IC50) in the experiment with CH1 is 11 µM; in the experiment on A2780 [1], 9.4 µM; in the experiment on A2780 [2], 13 µM; with SK-OV-3 it was 9.4 µM; with K562, 5 µM; in the experiment on HT-29, over 25 µM.
For `O=C(O[C@@H]1C=C(Br)C(=O)[C@H]1O)c1c(O)ccc2ccccc12`, the IC50 in the experiment with CH1 is 11 µM; in the experiment with A2780 [1] it was 10 µM; in the experiment on A2780 [2] it was 17.5 µM; in the experiment on SK-OV-3, 11 µM; in the experiment with K562 it was 3.5 µM; in the experiment on HT-29 it was over 25 µM.
Turning to `COc1cc(C)c2ccc(O)c(C(=O)O[C@@H]3C(=O)C=C[C@H]3O)c2c1`, the IC50 was 11 µM in the experiment on CH1; 9.4 µM with A2780 [1]; 9 µM in the experiment with A2780 [2]; 7.2 µM in the experiment with SK-OV-3; 4.5 µM in the experiment with K562; 13 µM with HT-29.
For `O=C(O[C@@H]1C(=O)C=C[C@H]1O)c1c(O)ccc2ccccc12`, the IC50 in the experiment with CH1 was 5.8 µM; in the experiment with A2780 [1] it was 3.7 µM; with A2780 [2], 9.4 µM; in the experiment with SK-OV-3, 3.1 µM; in the experiment with K562, 4 µM; in the experiment on HT-29, 12 µM.
`O=C(O[C@H]1[C@H](O)C=C[C@@H]1O)c1c(O)ccc2ccccc12` had an IC50 with K562 of over 100 µM.
For the compound `COc1cc(C)c2ccc(O)c(C(=O)O[C@@H]3C=CC(=O)[C@H]3O)c2c1`, the IC50 in the experiment with CH1 stood at 2.5 µM; in the experiment on A2780 [1], 2.5 µM; with A2780 [2], 4 µM; in the experiment with SK-OV-3, 2.5 µM; with K562, 5 µM; in the experiment on HT-29, 11 µM.
In the case of `COc1cc(C)c2ccc(O)c(C(=O)O[C@@H]3C=C[C@H](O)[C@H]3O)c2c1`, the IC50 in the experiment on K562 was over 100 µM.

For orientation: IC50 means the concentration that inhibits the measured activity by half. Low readings indicate inhibition by little substance, high ones a need for much substance.
